“Also recorded” adds a separate entry of the source. Ends that are not written are not given here.

The test system of one data set is Vero E6 cells. Description: Cytotoxicity assay, CELLTITER-GLO, Vero E6 cells. The note with it: peptide concentrations at or below 2 μM, about 72 hours. On the technique in general: ATP-based viability assays read luminescence as a measure of living cells.
In the next data set the test system is HEK 293T/17 cells. Kind of data set: Cytotoxicity assay, CELLTITER-GLO, HEK cells. To be noted: CELLTITER-GLO, 3 days.
Data set [1] concerns HEK cells. Kind of data set: Cytotoxicity with varying cell densities, HEK cells. To be noted: 5×10^3 to 1×10^5 cells/well.
Data set [2] relates to Lassa pseudovirus (LASVpv). To be noted: 1 h.
For another data set, the system named is human adenovirus 5. To be noted: read-out: EC50 against adenovirus (AdV); plaque assay.
The subject of data set [3] is HEK cells. Description: Cytotoxicity with varying serum (FBS) concentrations, HEK cells. To be noted: 0-50% FBS.
In the next data set the test system is dengue virus type 2. The note with it: read-out: EC50 against dengue virus (DENV); plaque assay.
Data set [4] concerns herpes simplex virus type 1. To be noted: read-out: EC50 against herpes simplex virus (HSV); plaque assay.

The term EC50 denotes the concentration at which the effect is half-maximal. In the case of “RRWLLLLNLLLLWRR-NH2 [TL4NdG, RRWLLLLNLLLLWRR]”, in the data set on Vero E6 cells, the “cell viability, Vero E6 cells” value is recorded as “High cell viability”. In addition, the “cytotoxicity against HEK cells” value in the data set on HEK 293T/17 cells is reported as “least cytotoxic test peptide; also recorded: much less cytotoxic than TL3; also recorded: least cytotoxic peptide tested”. In the data set with HEK cells [1], the “effect of cell density on cytotoxicity” value is on record as “remained consistent as cell density increases”. The “inhibition of LASVpv at 50 μM peptide” value in data set [2] is listed as “greater than 50%”. The EC50 in the data set with human adenovirus 5 was above 10000 nM. The “effect of serum concentration on cytotoxicity” value in the data set on HEK cells [3] is recorded as “essentially unchanged by serum concentration”.

Take RRGWLLLRLLRLLLRLLWGRR-NH2 [AHR]: in the data set on Vero E6 cells, the “cell viability, Vero E6 cells” value is “High cell viability”. Further, the EC50 in the data set on dengue virus type 2 is 310 nM; in data set [2], below 10000 nM; in the data set with human adenovirus 5 it was 1100 nM; in data set [4], 157 nM. Moreover, the “effect of cell density on cytotoxicity” value in the data set with HEK cells [1] is listed as “increases as cell density increases”. For the same substance, the “inhibition of LASVpv at 50 μM peptide” value in data set [2] is reported as “approximately 100%”. The “effect of serum concentration on cytotoxicity” value in the data set on HEK cells [3] was “cytotoxic in all serum concentrations at high peptide concentrations”.

The record behind these values is patent US20230220010A1, “BROAD-SPECTRUM ANTIVIRAL PEPTIDES” (priority 2020, published 2023).
